The source of these data is patent publication US4341770A, “Method of controlling ureaplasma infections” (Eli Lilly and Company, priority 1981, dated 1982).

Assay [1] concerns Ureaplasma isolate 763T-2. The assay is described as follows: conventional broth-dilution assay, MIC against Ureaplasma isolate 763T-2. Type of assay: cell-based. The source says: (§1) For example, in the conventional broth-dilution assay, OMT had minimal inhibitory concentrations (MIC's) against four isolates of Ureaplasma as shown in Table I.
The test system of assay [2] is Ureaplasma isolate 765T-3. The assay is described as follows: conventional broth-dilution assay, MIC against Ureaplasma isolate 765T-3. Type of assay: cell-based.
Text: as §1

Assay [3] relates to Ureaplasma isolate 773T-2. The assay is described as follows: conventional broth-dilution assay, MIC against Ureaplasma isolate 773T-2. Type of assay: cell-based.
Text: as §1

Assay [4] has as its system Ureaplasma isolate 779T-3. The assay is described as follows: conventional broth-dilution assay, MIC against Ureaplasma isolate 779T-3. Type of assay: cell-based.
Text: as §1

Assay [5] in a line: Treatment of naturally occurring pneumonia in calves with OMT (Example 1). Type of assay: in vivo. To be noted: for temperature averages of the calves: controls remained above 40° C. for 10 days; for calves that died: six of ten placebo-treated died. How it is done: Example one illustrates the useful in vivo activity of OMT against Ureaplasma. In the example OMT (free base) was administered in an aqueous propylene glycol solution, and non-medicated water and feed were provided to the animals ad libitum.
(§2) OMT was evaluated in calves for the treatment of naturally occurring pneumonia. Calves were purchased and transported to Lilly Research Laboratories, Greenfield, Indiana. The calves were weighed, bled, identified with eartags and allotted into pens soon after arrival. Rectal temperatures were taken and clinical observations were made daily.
(§3) Calves were put on test at the first signs of respiratory disease which included ocular and nasal discharges, pyrexia and/or depression.
(§4) Treated calves were injected intramuscularly with OMT in an aqueous propylene glycol vehicle. The treatment doses evaluated were 12.5 mg/kg and 25 mg/kg once a day for five days. Control calves were treated with placebo. There were 10 calves per group. Calves that died were examined at necropsy for lesions indicative of pneumomia. Surviving calves were killed seven days after the last treatment and examined for lesions at necropsy.

In assay [6] the test system is Ureaplasma species. The assay is described as follows: Treatment of pneumonia in calves (Example 1): isolation of Ureaplasma from lung tissue. Type of assay: in vivo. How it is done: as §2, §3, §4
The next assay has as its system Pasteurella species. The assay is described as follows: Treatment of pneumonia in calves (Example 1): control of Pasteurella. Type of assay: in vivo. The method, then:
as §2, §3, §4

The nature of assay [7]: Prevention of naturally occurring pneumonia in calves with OMT (Example 2). To be noted: for cumulative mortality: 19 calves per group. Type of assay: in vivo. How it is done: OMT was evaluated in calves for the prevention and control of naturally occurring pneumonia. Calves were purchased and transported to Lilly Research Laboratories, Greenfield, Ind. Soon after arrival the calves were weighed, bled, identified with eartags and allotted into pens. There were 19 calves in the OMT-treated group and 19 calves in the nontreated control group.
OMT was prepared as an injectable in an aqueous propylene glycol vehicle. The treated calves were each injected subcutaneously with 35 mg/lb (77 mg/kg) of OMT within a day after arrival. At this dose and route of administration, the drug was expected, based on blood level studies, to persist for seven days in the treated calves. The calves were each retreated with the same dose seven days later. Rectal temperatures were taken and clinical observations were made daily. Calves that died were examined at necropsy for lesions indicative of pneumonia.

In the next assay the test system is gram-positive bacteria. Conditions: taught by U.S. Pat. No. 3,459,853; cited from earlier work.
Assay [8] has as its system Ureaplasma species. Conditions: background statement; cited from earlier work.
[9] abbreviates: 12.5 mg/kg intramuscular once a day for five days.
The mark [10] stands for this setting: 25 mg/kg intramuscular once a day for five days.
[11] abbreviates: 77 mg/kg subcutaneous, repeated after seven days, 14-day observation.

In general, MIC refers to the lowest concentration that inhibits growth of the organism.

The structures appear in SMILES notation. ≈ marks a conversion by molar mass, not a printed value.

On to `CCC1OC(=O)CC(O)C(C)C(OC2OC(C)C(O)C(N(C)C)C2O)C(CC=O)CC(C)C(=O)C=CC(C)=CC1CO` (stereo not drawn) [OMT, 5-O-mycaminosyl tylonolide], for which the minimal inhibitory concentration (MIC) is 0.78 µg/mL (≈ 1.3 µM) in assay [1], 1.56 µg/mL (≈ 2.61 µM) in [2], 1.56 µg/mL (≈ 2.61 µM) in assay [3] and 1.56 µg/mL (≈ 2.61 µM) in assay [4]. For the same compound, the Scours entry in assay [5] (setting [9]) is “reduced”; in assay [5] (setting [10]), “reduced”; in [7] (setting [11]) it was “less severe”. For the same compound, the ocular discharge entry in [5] (setting [9]) and in [5] (setting [10]) was “reduced” throughout. Further, the “temperature averages of the calves” value in assay [5] (setting [9]) and in [5] (setting [10]) was “lowered to normal by the second day of treatment” in each case. The calves that died entry in [5] (setting [9]) and in [5] (setting [10]) was “two of ten” each time. In the assay on Ureaplasma species [6] (12.5 mg OMT/kg intramuscular once a day for five days, also isolated with placebo), the “Ureaplasma species isolated from lung tissue” value is listed as “isolated from lung tissue”. In the assay on Ureaplasma species [6] (setting [10]), the “elimination of the Ureaplasma species from the animals” value is listed as “eliminated the Ureaplasma species”. In the assay with Ureaplasma species [6] (25 mg/kg intramuscular once a day for five days, isolated from lung tissue of placebo calves), the “Ureaplasma species isolated from calves” value was “not isolated”. In addition, the “control of Pasteurella species associated with this pneumonia” value in the assay with Pasteurella species (setting [9]) and in the assay on Pasteurella species (setting [10]) was “effectively controlled” in each case. For the same compound, the “preventing death of calves due to a severe pneumonia” value in [7] (77 mg/kg subcutaneous, repeated after seven days) is given as “very effective in preventing death of calves”. Besides, in assay [7] (setting [11]), the “nasal and ocular discharges” value was “less severe”. Further, the average temperatures result in assay [7] (77 mg/kg subcutaneous, repeated after seven days, 14-day observation, vs non-medicated controls) is on record as “lower”. In addition, the “alertness and condition of calves” value in assay [7] (77 mg/kg subcutaneous, repeated after seven days, vs controls) is “more alert and in better condition than the controls”. The cumulative mortality in [7] (day 1, control 0) is recorded as 0; in assay [7] (day 2, control 0), 0; in assay [7] (day 3, control 0), 0; in assay [7] (day 4, control 1), 0; in [7] (day 5, control 3), 0; in assay [7] (day 6, control 5), 0. Besides, the cumulative mortality is listed as 0 in [7] (day 7, control 5); 0 in assay [7] (day 8, control 5); 0 in assay [7] (day 9, control 9); 0 in assay [7] (day 10, control 11); 0 in [7] (day 11, control 13); 0 in [7] (day 12, control 14). Besides, the cumulative mortality in [7] (day 13, control 14) is 2; in assay [7] (day 14, control 15), 3. In addition, the “calves that died with extensive pathologic lesions indicative of severe pneumonia” value in assay [7] (necropsy, 14 of the 15 control calves) is given as 3 calves. Moreover, the “inhibition of gram-positive bacteria” value with gram-positive bacteria is listed as “inhibited gram-positive bacteria”.

On to `CCC[C@@H]1C[C@@H](C(=O)N[C@@H]([C@H]2O[C@H](SC)[C@H](O)[C@@H](O)[C@H]2O)[C@@H](C)O)N(C)C1` [lincomycin], for which the “resistance of Ureaplasma species” value with Ureaplasma species [8] was “resistant”.
